Patent publication US8912227B1, “Bicyclic pyrrole derivatives useful as agonists of GPR120” (Janssen Pharmaceutica NV, priority 2014, dated 2014)

How the values were obtained:
Format in all cases: cell-based
[1] = target: T1, long form of human GPR120 (Homo sapiens, UniProt Q5NUL3); experiment: Human GPR120 DiscoveRx PathHunter β-Arrestin assay, Procedure β-arrestin A; conditions: PathHunter CHO-K1 GPR120 β-Arrestin cell line, 3000 cells per well
T1 construct: host or cells: PathHunter CHO-K1 GPR120 β-Arrestin Cell Line
Source text: The binding of an agonist (medium/long chain fatty acids or small molecule agonists) to the G-protein-coupled receptor GPR120 activates phospholipase C, leading to release of intracellular Ca^+2 through the generation of inositol 1,4,5-trisphosphate (InsP3 or IP3). GPR120 activation can also trigger intracellular signaling via recruitment of β-Arrestin. In the present method, agonist-induced activation of the human GPR120 receptor is monitored through the use of PathHunter CHO-K1 GPR120 β-Arrestin Cell Line engineered by DiscoveRx, as detailed below. The cell lines are designed to co-express both the ProLink/Enzyme Donor (PK)-tagged GPCR and the Enzyme […] (EA)-tagged Beta-Arrestin fusion proteins. Upon GPR120 receptor stimulation/activation, the EA-tagged β-Arrestin portion is translocated to the tagged receptor, where the two enzyme fragments are brought within close proximity. Under these conditions, these fragments can interact and form an active Beta-gal enzyme complex through Enzyme Fragment Complementation (EFC). This active Beta-gal complex can enzymatically hydrolyse the substrate to produce a detectable light signal; therefore, activation as a function of agonist concentration can be expressed as an EC50 value to determine relative compound activities. This in vitro assay therefore serves to assess compound agonist activity of the GPR120.
In Procedure β-arrestin A, the cell used were PathHunter CHO-K1 GPR120 β-Arrestin Cell Line, expressing the long form of human GPR120 (Genbank accession number NM_181745), with 3000 cells per well.
The selected CHO-K1 GPR120 β-Arrestin cells were cultured in Ham's F12 media supplemented with 10% fetal bovine serum (FBS), 1% Glutamine, 1×p/s, 800 μg/ml G418 and 300 μg/ml Hygromycin B (for selection). Cell stocks were maintained and grown in a sub-confluent state using standard cell culture procedures. The day before the experiment, the cells were harvested with non-enzymatic cell dissociation buffer and re-suspended in complete growth media at the desired concentration. A Corning 384-plate was then seeded with the proper number of cells in a volume of 25 μL, per well. The seeded plates were incubated overnight at 37° C.
On the day of the experiment, the Assay Buffer containing (a) HBSS with Ca^++ and Mg^++, (b) 20 mM HEPES, and (c) 0.1% BSA stabilizer (pH 7.4) was prepared. The growth medium was gently removed from the cell plates and 20 μL of Assay Buffer added to each well. The plate was then incubated at 37° C. for 60 mins. Test compounds were serially diluted in Assay Buffer to desired concentrations (more particularly, to one or more of the following μM concentrations: 25 μM, 12.5 μM, 6.25 μM, 3.125 μM, 1.562 μM, 0.781 μM, 0.391 μM, 0.195 μM, 0.098 μM, 0.049 μM, 0.024 μM, 0.012 μM). Five μl of compound dilution was then added to each well and the plate incubated at 37° C. for 90 mins. The detection reagents were prepared according to the manufacture's instruction. Twelve μL of the detection reagents were added to each well and the plate incubated at room temperature for 60 mins.
The plates were read on an EnVision instrument, using Protocol name: Luminescence, Plate type: 384 Costar, Measurement height: 3 mm, Measurement time: 1 s, Aperture: 384 Plate aperture. The % activity relative to the positive control was calculated using the following equation:
The % Activity values were plotted versus the concentration of test compound and fitted to a sigmoidal dose-response curve with a Hill slope=1 (fixed value) using nonlinear regression with GraphPad Prism 5.0 to calculate the EC50 values. The Fitting Equation was: Y=Bottom+(Top−Bottom)/(1+10^((LogEC50−X)*HillSlope)), where X is the log of the concentration and Y is the response.

Human GPR120 short form [2] = target: T2, Human GPR120 short form (Homo sapiens, UniProt Q5NUL3); experiment: Human GPR120 calcium flux assay, Procedure Calcium A; conditions: HEK-293 cells expressing human GPR120 short form, 2500 cells/well, FLIPR
T2 construct: expressed in transfected cells
T2 sequence (Q5NUL3 1-361): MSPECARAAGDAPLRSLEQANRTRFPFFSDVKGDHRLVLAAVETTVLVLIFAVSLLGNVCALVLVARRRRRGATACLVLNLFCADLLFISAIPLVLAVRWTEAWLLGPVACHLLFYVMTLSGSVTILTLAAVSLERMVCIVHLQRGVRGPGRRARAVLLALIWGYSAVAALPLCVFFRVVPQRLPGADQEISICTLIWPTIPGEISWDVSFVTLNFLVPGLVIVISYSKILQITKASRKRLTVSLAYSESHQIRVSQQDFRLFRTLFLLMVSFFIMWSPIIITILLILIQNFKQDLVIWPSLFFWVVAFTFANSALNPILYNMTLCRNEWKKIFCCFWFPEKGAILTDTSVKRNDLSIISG
Source text: (§1) This in vitro assay serves to assess test compound agonist activity against the short splice variant (SVS with Accession number NM_001195755.1 confirmed by sequencing data) of the GPR120 receptor. The Human Short splice variant #2 (NM_001195755.1) is missing an in-frame coding exon compared to variant 1 (the Human Long splice variant NM_181745.3), resulting in a shorter isoform (GPR120-S) lacking a 16 aa protein segment compared to isoform GPR120-L. The assay platform utilizes HEK-293 cells stably transfected to express the Human GPR120 short form. These cells are first loaded with the Ca^+2 sensitive dye, Fluo-4 NW. Upon stimulation, intracellular released Ca^+2 can bind to the dye and alter its fluorescence intensity. This increase in fluorescence signal, and thus the flux in intracellular [Ca^2+], is detected and quantitated by fluorescence imaging using a FLIPR reader. The effect of the agonist is measured as a function of concentration and used to calculate an EC50 based upon a response curve.
In this procedure 2500 cells/well were employed.
(§2) A Human GPR120 clone (Genbank accession number NM_001195755.1) was placed into the pcDNA3.1 mammalian expression vector carrying the neomycin resistance gene. A stable mammalian cell was generated by placing the above clone into a HEK293 background. Clonal cells responding to long chain fatty acids had expression levels of GPR120 confirmed by RT-qPCR. Human HEK-GPR120 cells were cultured in Dulbecco's Modified Eagle's Medium (DMEM)/F12 medium supplemented with 10% fetal bovine serum (FBS), 1% L-Glutamine and 1% penicillin/streptomycin and 0.5 mg/ml G-418. Cells were split 2 times a week to keep the cells in the log-phase growth.
(§3) In preparation for the assay, HEK cells stably transfected with Human GPR120 (2.5K cells per well in 25 uL growth medium) were seeded into 384-well plates and then incubated overnight (37° C., 5% CO2). The next day, the media was changed to 20 μl assay buffer and the cell starved for 1 h at 37° C. The dye loading solution (2× dye) was prepared using 10 ml assay buffer, 100 μl of 250 mM probenecid, 1 bottle of Component A, and 20 μl of dye in DMSO. Twenty μl of the 2× dye loading buffer was then added to each well. The plates were incubated at 37° C. for 30 min, then at room temperature for an additional 15 minutes, before performing the assay on FLIPR.
(§4) Test compounds were prepared in assay buffer (2 μl of test compound+198 μl assay buffer, final DMSO in assay plate is 0.2%) at the desired concentration, more particularly at 100 μM, 50 μM, 25 μM, 12.5 μM, 6.25 μM, 3.125 μM, 1.562 μM, 0.781 μM, 0.391 μM, 0.195 μM, 0.098 μM, 0.049 μM, 0.024 μM and 0.012 μM.
(§5) The assay was performed on a FLIPR plate reader using the following parameters. Baseline was read for 10 seconds at 1 sec intervals. The program was set to transfer 10 μL of ligand from compound plate to cell plate after baseline reading. Aspiration was executed at: 10 μl/sec speed, 4.6 μl height; Dispensing was executed at: 30 μl/sec speed, 45 μl height. After compound addition, each well was read for 300 sec, with measurements collected at 1 sec intervals.
(§6) The kinetic data from the FLIPR was based upon a 5 minute window for data collection. The fluorescence of each sample well was used for individual calculations of a normalized RFU value, which was defined as maximum response minus the minimum response. The normalized fluorescence reading (RFU) was calculated as follows: RFU=Fmax−Fmin
(§7) The data were fitted to a sigmoidal dose-response curve with a variable Hill slope (<2) using nonlinear regression with GraphPad Prism 5.0 to calculate the EC50 values. The Fitting Equation was: Y=Bottom+(Top−Bottom)/(1+10^((LogEC50−X)*HillSlope)), where X is the log of the concentration and Y is the response.

Human GPR120 short form [3] = target: T2, Human GPR120 short form; experiment: Human GPR120 calcium flux assay, Procedure Calcium B; conditions: HEK-293 cells expressing human GPR120 short form, 4200 cells/well, FLIPR
Source text: as §1
In this procedure 4200 cells/well were employed.
as §2, §3, §4, §5, §6, §7

T1 sequence (Q5NUL3 1-377 isoform Q5NUL3-1): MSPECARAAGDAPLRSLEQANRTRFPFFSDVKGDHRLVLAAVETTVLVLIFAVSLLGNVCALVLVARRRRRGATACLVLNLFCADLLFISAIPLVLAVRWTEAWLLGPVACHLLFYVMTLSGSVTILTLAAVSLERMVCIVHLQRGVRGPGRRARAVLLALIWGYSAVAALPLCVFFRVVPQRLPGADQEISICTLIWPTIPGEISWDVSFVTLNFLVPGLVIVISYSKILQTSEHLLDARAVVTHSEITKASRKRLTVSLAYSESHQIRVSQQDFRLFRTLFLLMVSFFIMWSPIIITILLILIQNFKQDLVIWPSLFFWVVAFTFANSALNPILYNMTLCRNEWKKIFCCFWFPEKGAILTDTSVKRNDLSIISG
T1 sequence (P32121 whole entry partner): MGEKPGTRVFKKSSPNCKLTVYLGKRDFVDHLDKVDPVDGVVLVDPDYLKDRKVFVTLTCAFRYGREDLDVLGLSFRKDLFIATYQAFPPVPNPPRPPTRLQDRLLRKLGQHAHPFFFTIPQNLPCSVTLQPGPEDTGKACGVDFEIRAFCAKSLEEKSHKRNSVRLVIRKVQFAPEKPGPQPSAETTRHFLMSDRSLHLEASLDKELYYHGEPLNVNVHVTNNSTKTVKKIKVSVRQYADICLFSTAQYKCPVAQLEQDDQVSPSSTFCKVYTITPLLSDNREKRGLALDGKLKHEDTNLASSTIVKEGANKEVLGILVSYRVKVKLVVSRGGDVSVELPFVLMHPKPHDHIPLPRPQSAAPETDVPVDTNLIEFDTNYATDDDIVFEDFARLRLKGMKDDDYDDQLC

Row | EC50 [1] | EC50 (Human GPR120 short form [2]) | EC50 (Human GPR120 short form [3]) | SMILES
1 | 592 nM | 1040 nM | 164 nM | Cc1c(CCC(=O)O)ccc(OCc2cccn2-c2ccc(Br)cc2)c1C [Compound 3, 3-(4-{[1-(4-Bromophenyl)-1H-pyrrol-2-yl]methoxy}-2,3-dimethylphenyl)propanoic acid]
2 | 130 nM | 435 nM | 368 nM | OCCCc1ccc(OCc2c(Br)ccn2-c2ccc(Cl)cc2)c(F)c1F [Compound 5, 3-(4-{[3-Bromo-1-(4-chlorophenyl)-1H-pyrrol-2-yl]methoxy}-2,3-difluorophenyl)propan-1-ol]
3 | 730 nM | 819 nM | 161 nM | O=C(O)CCc1ccc(OCc2c(Br)ccn2-c2ccc(Cl)cc2)c(F)c1F [Compound 6, 3-(4-{[3-Bromo-1-(4-chlorophenyl)-1H-pyrrol-2-yl]methoxy}-2,3-difluorophenyl)propanoic acid]
4 | – | 395 nM | 58 nM | COc1ccc(-n2ccc(C(F)(F)F)c2COc2ccc(CCCO)c(F)c2F)cn1 [Compound 50, 3-(2,3-difluoro-4-[[1-(6-methoxypyridin-3-yl)-3-(trifluoromethyl)-1H-pyrrol-2-yl]methoxy]phenyl)propan-1-ol]
5 | – | 497 nM | 115 nM | CCc1ccc(-n2ccc(C(F)(F)F)c2COc2ccc(CCCO)c(F)c2F)cn1 [Compound 54, 3-(4-[[1-(6-ethylpyridin-3-yl)-3-(trifluoromethyl)-1H-pyrrol-2-yl]methoxy]-2,3-difluorophenyl)propan-1-ol]
6 | – | 215 nM | 34 nM | CCc1ccc(-n2ccc(C(F)(F)F)c2COc2c(F)cc(CCCO)cc2F)cn1 [Compound 55, 3-(4-[[1-(6-ethylpyridin-3-yl)-3-(trifluoromethyl)-1H-pyrrol-2-yl]methoxy]-3,5-difluorophenyl)propan-1-ol]
7 | – | 840 nM | 77 nM | COc1ccc(-n2ccc(C(F)(F)F)c2COc2ccc(CCC(=O)O)c(F)c2F)cn1 [Compound 57, 3-(2,3-difluoro-4-((1-(6-methoxypyridin-3-yl)-3-(trifluoromethyl)-1H-pyrrol-2-yl)methoxy)phenyl)propanoic acid trifluoroacetic acid]

The next lines start with the molecule.

Row | SMILES | EC50 [1] | EC50 (Human GPR120 short form [2]) | EC50 (Human GPR120 short form [3])
8 | Cc1c(CCC(=O)O)ccc(OCc2c(Cl)ccn2-c2ccc(Cl)cc2)c1C [Compound 8, 3-(4-{[3-Chloro-1-(4-chlorophenyl)-1H-pyrrol-2-yl]methoxy}-2,3-dimethylphenyl)propanoic acid] | 1000 nM | 528 nM | 173 nM
9 | Cc1ccc(-n2ccc(C(F)(F)F)c2COc2ccc(CCCO)c(C)c2C)cc1 [Compound 45, 3-(2,3-dimethyl-4-[[1-(4-methylphenyl)-3-(trifluoromethyl)-1H-pyrrol-2-yl]methoxy]phenyl)propan-1-ol] | – | 1440 nM | 512 nM
10 | COc1ccc(-n2ccc(C(F)(F)F)c2COc2c(F)cc(CCC(=O)O)cc2F)cn1 [Compound 51, 3-(3,5-difluoro-4-[[1-(6-methoxypyridin-3-yl)-3-(trifluoromethyl)-1H-pyrrol-2-yl]methoxy]phenyl)propanoic acid] | – | 675 nM | 197 nM
11 | COc1ccc(-n2ccc(C(F)(F)F)c2COc2c(F)cc(CCCO)cc2F)cn1 [Compound 52, 3-(3,5-difluoro-4-[[1-(6-methoxypyridin-3-yl)-3-(trifluoromethyl)-1H-pyrrol-2-yl]methoxy]phenyl)propan-1-ol] | – | 285 nM | 71 nM
12 | Cc1ccc(-n2ccc(C(F)(F)F)c2COc2ccc(CCC(=O)O)c(F)c2F)cn1 [Compound 53, 3-(2,3-Difluoro-4-{[1-(6-methylpyridin-3-yl)-3-(trifluoromethyl)-1H-pyrrol-2-yl]methoxy}phenyl)propanoic acid] | – | 1990 nM | 428 nM
13 | CCc1ccc(-n2ccc(C(F)(F)F)c2COc2c(F)cc(CCC(=O)O)cc2F)cn1 [Compound 56, 3-(4-[[1-(6-ethylpyridin-3-yl)-3-(trifluoromethyl)-1H-pyrrol-2-yl]methoxy]-3,5-difluorophenyl)propanoic acid] | – | 1410 nM | 877 nM
